The values that follow come from patent US20230355536A1, “OZONE-BASED LOW TEMPERATURE SILICON OXIDE COATING FOR PHARMACEUTICAL APPLICATIONS” (Applied Materials, Inc., priority 2022, published 2023).

What all share (type): physicochemical
Data set [1] can be described thus: FTIR spectrum of API particles before and after coating process. The following applies: coated versus uncoated API particles. The text has this:
FIGS. 2A-2B (FIG. 2B is a zoom-in image of FIG. 2A) show the FTIR spectrum of the coated and uncoated acetaminophen API particles.
FIGS. 6A-6B (FIG. 6B is a zoom-in image of FIG. 6A) show the FTIR spectrum of the coated and uncoated theophylline API particles.
FIGS. 9A-9B (FIG. 9B is a zoom-in image of FIG. 9A) show the FTIR spectrum of the coated and uncoated API-1 particles.

Data set [2] in a line: Wetting/dispersity of particles in DI water. To be noted: acetaminophen particles dissolved into DI water. How it is done:
The coated API (acetaminophen) particles were dissolved into DI water to test the wetting/dispersity properties of these particles.
As a control group, API (acetaminophen) was also treated with silane to apply a monolayer of silane.

Data set [3] is described as follows: HPLC analysis of API integrity after ozone treatment. The following applies: ozone generated with oxygen flow rate of 10, 30 and 50 sccm. How it is done: To test whether ozone treatment will affect the integrity of the API, the API (acetaminophen) was treated with ozone at various concentrations. Here, ozone was created by an ozone generator with various oxygen flow rates. The lower the oxygen flow rate, the high the ozone concentration is. Specifically, the API (acetaminophen) was treated with ozone generated with an oxygen flow rate of 10 sccm, 30 sccm and 50 sccm. FIGS. 8A-8D show the HPLC analysis of the API (acetaminophen) after ozone treatment. […] As shown in FIGS. 8A-8D, there were no new peaks (impurity) generated after ozone exposure with as low as 10 sccm oxygen flow rate (highest O3 concentration)

With `CC(=O)Nc1ccc(O)cc1` [acetaminophen], the “change in FTIR signals before and after the coating process” value in data set [1] was “no significant change”. The wetting/dispersity result in data set [2] was “poor wetting/dispersity”. Further, the “new peaks (impurity) in HPLC after ozone exposure” value in data set [3] is listed as “no new peaks”.
For `Cn1c(=O)c2[nH]cnc2n(C)c1=O` [theophylline, reference compound], in data set [1], the “change in FTIR signals before and after the coating process” value was “no significant change”.
